Common to all, as to assay type: binding
Experiment [1] deals with T1, CmnC (Saccharothrix mutabilis, UniProt A6YEH4).
T1 construct: cmnC amplified from genomic DNA in pET28a, E. coli BL21 (DE3), Ni-NTA purified; homodimer in crystal and by size-exclusion chromatography
The experiment can be described thus: X-ray crystal structure by soaking; hydroxylation by LC-MS. The settings on record: 0.1 mM FeCl2 soak.

For experiment [2], the target named is T2, CmnC (Saccharothrix mutabilis, UniProt A6YEH4, L136Q/S138G/D249Y).
T2 construct: cmnC amplified from genomic DNA in pET28a, E. coli BL21 (DE3), Ni-NTA purified; homodimer in crystal and by size-exclusion chromatography
T2 sequence (A6YEH4 1-338 L136Q/S138G/D249Y): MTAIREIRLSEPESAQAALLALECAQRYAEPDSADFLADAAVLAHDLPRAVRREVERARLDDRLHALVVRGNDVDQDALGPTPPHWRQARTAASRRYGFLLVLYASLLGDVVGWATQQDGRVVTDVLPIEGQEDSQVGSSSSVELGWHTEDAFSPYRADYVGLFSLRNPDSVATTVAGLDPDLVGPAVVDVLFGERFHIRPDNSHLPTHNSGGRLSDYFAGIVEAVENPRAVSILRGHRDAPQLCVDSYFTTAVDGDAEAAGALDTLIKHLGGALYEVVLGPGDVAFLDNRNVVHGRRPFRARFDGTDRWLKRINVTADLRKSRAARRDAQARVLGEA
The experiment can be described thus: X-ray crystal structure by soaking, […] Å; hydroxylation by LC-MS. As to conditions: 20 mM D-Arg soak, 12 h; activity: α-KG, Fe(II), ascorbate, pH 7.0, 26 °C.

Experiment [3] has as its target T1, CmnC. The experiment can be described thus: X-ray crystal structure by soaking. As to conditions: 3 mM α-KG, 0.1 mM FeCl2 soak, 12 h; ternary complex with L-Arg also solved.
Experiment [4] deals with T2, CmnC. The experiment can be described thus: X-ray crystal structure by soaking, […] Å. The settings on record: 3 mM α-KG and 0.1 mM FeCl2 soak, 12 h.

Structures are written as SMILES.

T1 sequence (A6YEH4 1-338): as the sequence (A6YEH4 1-338 L136Q/S138G/D249Y) above, with Q136L, G138S, Y249D counted along it

As to `N=C(N)NCCCC[C@H](N)C(=O)O` [L-hArg], the “X-ray crystal structure by soaking; hydroxylation by LC-MS” value in experiment [1] (3 mM L-hArg, tartrate in α-KG site) is given as “in complex with L-Arg (CmnC^ L−Arg), L-hArg (CmnC^ L-hArg), α-KG (CmnC^α-kg)”.

In the case of `N=C(N)NCCC[C@@H](N)C(=O)O` [D-Arg], the “X-ray crystal structure by soaking, 1.75 Å; hydroxylation by LC-MS” value in experiment [2] was “crystal structures of CmnC^L136Q,S138G,D249Y in complex with α-KG (CmnC^triple,α-kg) and D-Arg (CmnC^triple,D−Arg)”.

Regarding `O=C(O)CCC(=O)C(=O)O` [α-KG], in experiment [3], the “X-ray crystal structure by soaking” value is “L-hArg (CmnC^ L-hArg), α-KG (CmnC^α-kg), and L-Arg/α-KG (CmnC^ L−Arg,α-kg)”. For the same compound, the “X-ray crystal structure by soaking, 1.67 Å” value in experiment [4] is “crystal structures of CmnC^L136Q,S138G,D249Y in complex with α-KG (CmnC^triple,α-kg)”.

Turning to `N=C(N)NCCC[C@H](N)C(=O)O` [L-Arg], in experiment [1] (3 mM L-Arg, tartrate in α-KG site in the binary complex, ternary complex with α-KG also solved), the “X-ray crystal structure by soaking; hydroxylation by LC-MS” value is “in complex with L-Arg (CmnC^ L−Arg), L-hArg (CmnC^ L-hArg), α-KG (CmnC^α-kg)”.

These data come from paper PMC9513391, “Crystal structure of the α-ketoglutarate-dependent non-heme iron oxygenase CmnC in capreomycin biosynthesis and its engineering to catalyze hydroxylation of the substrate enantiomer” (Frontiers in Chemistry, 2022).
